Data published in US20240343699A1, “DERIVATIVES OF SUBSTITUTED MORPHOLINES AND USES THEREOF” (Supernus Pharmaceuticals, Inc., priority 2023, published 2024).
Values joined by “and” are separate entries in the source; they are usually repeats but may differ in a detail not shown here. Equal entries are not always repeated. Where two headings read alike, the source gives them in different places.

Key:
[1] = Metabolic stability in rat liver S9; type: in vitro ADME, Sprague Dawley rat; parameters: half-life: dose or concentration left out as unconfirmed; conditions: for half-life: Sprague Dawley (rat), rat, dog and human liver S9 incubations (summary over species), read-out: half-lives; for half-life / half-life at 1 μM / microsomal CLint at 1 μM: pH 7.2
Protocol: Incubation Buffer (PBK): 50 mM potassium phosphate buffer was prepared from 1 M potassium phosphate buffer, pH 7.2. […] The dilution of […] was prepared by 90% methanol/10% DMSO, then 10 μM working solutions were prepared by diluting the 0.1 mM intermediates with 50 mM PBK. […] Prior to use, the stock solutions were brought to room temperature and thoroughly mixed. […] Cofactors Solutions: the mixture of cofactors solution was made at 10 mM of NADPH and 10 mM of UDPGA in PBK buffer.
The incubation was carried out in 96-well plates. The liver S9 working solutions were added to 96-well plates (80 μL/well) in duplicate. […] Reaction was initiated by adding cofactor mixture 10 μL/well. The plates were incubated at 37° C. in a water bath with shaking. […] The final organic solvent content in the incubation was ≤1%.
At specified time points, i.e., 5, 10, 20, 30 and 60 minutes, NCF60 (without adding NADPH (Nicotinamide-adenine dinucleotide phosphate, reduced form) and UDPGA (Uridine 5′-diphosphoglucuronic acid trisodium salt) replaced with PBK buffer reaction was stopped by adding three volumes of stop solution. The time zero (To) samples were prepared by adding three volumes of stop solution to liver S9 samples, followed by addition of test article or control, and cofactor mixture solution 10 μL/well.
Subsequently, 100 μL of supernatant.
Positive controls: 7-ethoxycoumarin and 7-hydroxycoumarin.

locomotor activity = test: SmartCage locomotor activity; conditions: 24 hr
Protocol: Animals. […] Upon arrival at the facility, animals were group-housed (5/cage) with access to food and water ad libitum. Animals were maintained on a 12/12-hour light/dark cycle in a temperature—(22±2° C.) and humidity-(approx.35-50%) controlled room. Animals were numbered consecutively by tail ID marker in each home cage.
Locomotor Activity Monitoring. […] After the first day, animals were administered one of four doses (PO) of test article and monitored for the next 24 hours. The animal's activity during the monitored hours was quantified using the parameters of distance travelled, time active, and rearing activity.
SmartCage. After a washout period of at least 24 hours following a TST evaluation during which the animals were group-housed (5/cage), individual mice were placed into a freshly prepared home cage and their activity recorded simultaneously using the SmartCage™ system and a video camera placed above the SmartCage™ system.
Active wakefulness was defined as actively moving, rearing, and exploratory behaviors. […] Likewise, distance traveled in centimeters was obtained from the lower horizontal IR and calculated taking into account the animal's path. […] The calculated distance traveled (at any given time period, called ‘block’, or ‘total measuring period’) and speed were the two main parameters for locomotor activity. […]

[2] = Cellular and nuclear receptor functional assays; type: cell-based; conditions: human recombinant (CHO cells); for Kb: apparent dissociation constant, modified Cheng Prusoff equation, read-out: kB, 5-HT2B(h) (antagonist effect); for IC50: serotonin (30 nM), IP1, HTRF, read-out: IC50, 5-HT2B(h) (antagonist effect)
Protocol: A study was conducted to test 5 compounds in cellular and nuclear receptor functional and enzyme and uptake assays.
The results are expressed as a percent of control agonist response or inverse agonist response and as a percent inhibition of control agonist response
The EC50 values (concentration producing a half-maximal response) and IC50 values (concentration causing a half-maximal inhibition of the control agonist response) were determined by non-linear regression analysis of the concentration-response curves generated with mean replicate values using Hill equation curve fitting […]
(§1) where Y=response, A=left asymptote of the curve, D=right asymptote of the curve, C=compound concentration, and C50=EC50 or IC50, and nH=slope factor. This analysis was performed using software developed at Cerep (Hill software) and validated by comparison with data generated by the commercial software SigmaPlot® 4.0 for Windows® (© 1997 by SPSS Inc.).
For the antagonists, the apparent dissociation constants (KB) were calculated using the modified Cheng Prusoff equation where A=concentration of reference agonist in the assay, and EC50A=EC50 value of the reference agonist.
(§2) In Vitro Pharmacology. Results showing an inhibition (or stimulation for assays run in basal conditions) higher than 50% were considered to represent significant effects of the test compounds. Results showing an inhibition (or stimulation) between 25% and 50% are indicative of weak to moderate effects. Results showing an inhibition (or stimulation) lower than 25% were not considered significant and mostly attributable to variability of the signal around the control level.

[3] = Plasma stability in rat plasma; type: in vitro ADME, Sprague Dawley rat; conditions: final concentration 2 μM
Protocol: A study was conducted to examine the plasma stability. Test Compounds: COMPOUND D, COMPOUND E, and Viloxazine. Positive controls: Enalapril and Propantheline.
A study was conducted to examine the bioanalytical data for compounds in Rat plasma. Frozen Sprague Dawley rat (male pooled) and human (mixed gender) plasma was utilized for the study. Test compounds were dissolved in dimethyl sulfoxide (DMSO) to make a 10 mM stock solution. A working solution was made with MeOH/water. COMPOUND E ([…]) was incubated with plasma in duplicates at 37° C. in a water bath. Sampling timepoints included 0, 5, 15, 30, and 60 min Enalapril and propantheline were used as positive control for rat and human plasma at 2 μM

Binding assays = conditions: 1.0E−05 M
Protocol: A study was conducted to test COMPOUND D and COMPOUND E in Binding and enzyme and uptake assays.
COMPOUND D and COMPOUND E were tested at 1.0E-05 M.
The results are expressed as a percent of control specific binding and as a percent inhibition of control specific binding
The IC50 values (concentration causing a half-maximal inhibition of control specific binding) and Hill coefficients (nH) were determined by non-linear regression analysis of the competition curves generated with mean replicate values using Hill equation curve fitting […]
as §1, with “Y=specific binding,” for “Y=response,”, “C50=IC50,” for “and C50=EC50 or IC50,”
The inhibition constants (Ki) were calculated using the Cheng Prusoff equation where L=concentration of radioligand in the assay, and KD=affinity of the radioligand for the receptor. A scatchard plot is used to determine the KD.
as §2, with “than […]” for “than 50%”, “than […]” for “than 25%”

[4] = Sprague Dawley, rat liver S9, 1 μM
[5] = Sprague Dawley, rat liver S9, 1 μM, read-out: CLint(LS9)
[6] = rat liver S9, 1 μM, NCF60 (no cofactors, 60 min)
[7] = 1 μM in SD Rat liver S9 fractions
[8] = Sprague-Dawley, 1 μM in SD Rat liver S9 fractions
[9] = Sprague-Dawley, 1 μM in SD Rat liver S9 fractions, read-out: CLint(mic.)

Row | SMILES | half-life [1] [min] | half-life at 1 μM [1, 4] [min] | microsomal CLint at 1 μM [1, 5] [µL/min/mg] | % Remaining ([1]; rat liver S9, 1 μM, 0 min) [%] | Analyte Peak area/IS Peak area Mean × 100 (n = 2) ([1]; rat liver S9, 1 μM, 0 min) | % Remaining ([1]; rat liver S9, 1 μM, 5 min) [%] | Analyte Peak area/IS Peak area Mean × 100 (n = 2) ([1]; rat liver S9, 1 μM, 5 min) | % Remaining ([1]; rat liver S9, 1 μM, 10 min) [%] | Analyte Peak area/IS Peak area Mean × 100 (n = 2) ([1]; rat liver S9, 1 μM, 10 min) | % Remaining ([1]; rat liver S9, 1 μM, 20 min) [%] | Analyte Peak area/IS Peak area Mean × 100 (n = 2) ([1]; rat liver S9, 1 μM, 20 min) | % Remaining ([1]; rat liver S9, 1 μM, 30 min) [%] | Analyte Peak area/IS Peak area Mean × 100 (n = 2) ([1]; rat liver S9, 1 μM, 30 min) | % Remaining ([1]; rat liver S9, 1 μM, 60 min) | Analyte Peak area/IS Peak area Mean × 100 (n = 2) ([1]; rat liver S9, 1 μM, 60 min) | % Remaining [1, 6] [%] | Analyte Peak area/IS Peak area Mean × 100 (n = 2) [1, 6] | Kb [2] [µM] | IC50 [2] [µM] | % Remaining at 60 min (Mean) [3] [%] | further results
1 | CCOc1ccccc1OC[C@@H]1CN(C(=O)OC(C)OC(=O)[C@@H](N)C(C)C)CCO1 (stereo partly drawn) [COMPOUND A] | 4 to 12 | 8.61 | 161 | 100 | 10.7 | 6.3 | 0.669 | 5.4 | 0.574 | 3.4 | 0.362 | 1.6 | 0.171 | 0.25% | 0.026 | 2.2 | 0.237 | 1 | 6.9 | – | home cage activity (activity, rearing, distance, velocity) (locomotor activity; COMPOUND A 10, 30 and 90 mg/kg PO): no significant effect on daytime or nighttime activity measurements
2 | CCOc1ccccc1OC[C@@H]1CN(C(=O)OC(OC(=O)[C@@H](N)C(C)C)C(C)C)CCO1 (stereo partly drawn) [COMPOUND B] | 4 to 12 | 4.09 | 339 | 100 | 7.71 | 6.8 | 0.524 | 4.6 | 0.351 | 2.3 | 0.174 | 0.2 | 0.019 | 0.08% and 0.1% | 0.006 | 0.4 | 0.029 | 2.1 | 14 | – | –
3 | CCOc1ccccc1OC[C@@H]1CN(C(=O)OC(OC(=O)[C@H](N)C(C)C)C(C)C)CCO1 (stereo partly drawn) [COMPOUND C] | 4 to 12 | 8.53 | 163 | 100 | 6.55 | 19 | 1.24 | 13 | 0.834 | 5.6 | 0.365 | 3.5 | 0.228 | 0.39% and 0.4% | 0.026 | 3.5 | 0.228 | 2 | 13 | – | home cage activity (activity, rearing, distance, velocity) (locomotor activity; COMPOUND C 10, 30, 60 and 90 mg/kg PO): no significant effect on daytime or nighttime activity measurements
4 | CCOc1ccccc1OCC1CN(C(=O)OC(C)OC(=O)[C@H](N)C(C)C)CCO1 (stereo partly drawn) [COMPOUND D] | – | – | – | – | – | – | – | – | – | – | – | – | – | – | – | – | – | 0.75 | 4.9 | 0.0 | inhibition, 5-HT2B(h) (antagonist effect) (Binding assays): 81.5%; inhibition, 5-HT2c(h) (antagonist effect) (Binding assays): 72.4%; inhibition, 5-HT4e(h) (antagonist radioligand) (Binding assays): 78.6%; inhibition, norepinephrine transporter(h) (antagonist radioligand) (Binding assays): 78.4%; % Remaining at 60 min [1, 7]: 0.48%; half-life at 1 μM [1, 8]: 9.4 min; microsomal CLint at 1 μM [1, 9]: 148 µL/min/mg
5 | CCOc1ccccc1OCC1CN(C(=O)OC(OC(=O)[C@@H](N)C(C)C)C(C)C)CCO1 (stereo partly drawn) [COMPOUND E] | – | – | – | – | – | – | – | – | – | – | – | – | – | – | – | – | – | 0.63 | 4.2 | 0.0 | inhibition, 5-HT2B(h) (agonist radioligand) (Binding assays): 80.2%; inhibition, 5-HT2C(h) (agonist radioligand) (Binding assays): 54.1%; inhibition, Ca^2+ channel (L, diltiazem site) (benzothiazepines) (antagonist radioligand) (Binding assays): 78.9%; inhibition, Ca^2+ channel (L, verapamil site) (phenylalkylamine) (antagonist radioligand) (Binding assays): 50.7%; inhibition, MT3 (ML2) (agonist radioligand) (Binding assays): 51.1%; inhibition, Na^+ channel (site 2) (antagonist radioligand) (Binding assays): 84.5%; % Remaining at 60 min [1, 7]: 0.00%; half-life at 1 μM [1, 8]: 4.8 min; microsomal CLint at 1 μM [1, 9]: 290 µL/min/mg
